Consider 13 compounds from patent US20080161294A1, “Urea derivative, medicinal composition containing the same, and medicinal use of these” (priority 2005, published 2008).

SMILES strings stand for the structures.

The test system of one data set is Male SD rats. In words: Acute toxicity test. It is filed as in vivo. Particulars: 10 mg/kg intravenously, N=2, one hour experimental period, urethane anesthesia. As for the experimental part:
Male SD rats (250-300 g weight) were divided into some groups (N=2) and each cannula was inserted into trachea and jugular vein under anesthesia with urethane (1.5 g/kg, subcutaneously). The test compound solutions were prepared with an adequate solvent to be a dosage of 10 mg/kg, and then the solution was administered intravenously via cannula. The survival rate was determined for an hour experimental period.

For data set [1], the target named is T1, human V2 receptor (Homo sapiens, UniProt P30518). In words: Study to confirm the agonism of human V2 receptor (intracellular Ca2+, HEK293 cells coexpressing human V2 receptor and Gqs chimeric protein). Format: cell-based. Set-up: expressed in transfected cells; host or cells: HEK293 cells (American Type Culture Collection), transient transfection with pCI-neo/hV2 and pLEC-Gqs5. Particulars: for EC50: intracellular Ca2+ response, HEK293 cells coexpressing human V2 receptor and Gqs; for I A (intrinsic activity): maximum response relative to AVP = 1.00. As for the experimental part: The Study to Confirm the Agonism of Human V2 Receptor
T1 sequence (P30518 whole entry): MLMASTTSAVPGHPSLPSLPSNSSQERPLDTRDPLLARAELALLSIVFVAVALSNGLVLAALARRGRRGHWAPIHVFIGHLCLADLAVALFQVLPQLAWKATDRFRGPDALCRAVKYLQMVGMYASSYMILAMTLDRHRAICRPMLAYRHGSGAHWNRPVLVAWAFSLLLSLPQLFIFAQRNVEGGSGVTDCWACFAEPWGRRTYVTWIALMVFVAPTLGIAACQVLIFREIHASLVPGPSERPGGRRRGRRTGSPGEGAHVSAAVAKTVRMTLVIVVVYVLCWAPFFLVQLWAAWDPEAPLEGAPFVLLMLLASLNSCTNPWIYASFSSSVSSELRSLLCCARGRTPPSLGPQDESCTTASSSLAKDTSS
The experiment to confirm the response of the test compounds to human V2 receptor was carried out using the cells prepared as described below in order to use this confirmation study to see the agonism of human V2 receptor of the test compounds.
The test compounds were dissolved in dimethylsulfoxide at 10 mM and solutions of the test compounds were prepared by 10-fold serial dilution with the Assay buffer (0.1% BSA, 20 mM HEPES/Hank's balanced salt solution, pH 7.4) at the concentration of 0.1 nM to 10 μM, which were used in this study.
Human V2 receptor couples with Gs protein, one of the G-coupling protein, and consequently produces cyclic adenosine 3′, 5′-monophosphate (cAMP) via adenylate cyclase. This cAMP produce can be substituted to intracellular increase of Ca^2+ with coexpressing Gqs, a chimeric protein, and human V2 receptor (Mol. Pharmacol., Vol. 50, pp. 885-890, 1996). The responses of the test compounds for human V2 receptor were quantified by measuring this intracellular Ca^2+. The changes of intracellular Ca^2+ after adding the test compounds at each concentration as mentioned above (0.1 nM to 10 μM) were measured with a FlexStation (Molecular Devices) using a FLIPR CALCIUM ASSAY KIT (Molecular Devices).
The intrinsic activities (IA) of the test compounds were calculated from the maximum response of the test compounds as that of AVP was considered to be 1.00. In case of a full agonist, the EC50 values of the test compounds were calculated as the maximum response of AVP was considered to be 100% and in the case of a partial agonist, EC50 values of test compounds were calculated as the maximum response of own test compounds were considered to be 100%. The concentration that achieved to 50% response of the maximum response in a concentration-response curve was considered as EC50 value. The values of EC50 obtained in this study were shown in Table 84 described below as indications of the agonism of human V2 receptor.
The Preparation of the Cells Using Confirmation Study of an Agonism of Human V2 Receptor (HEK293 Cells Coexpressed Human V2 Teceptor and Gqs Chimeric Protein)
HEK293 cells (American Type Culture Collection) were incubated in the Eagle's Minimum Essential Medium (EMEM, Invitrogen) containing 1 mM sodium pyruvate, nonessential amino acids (0.1 mM), streptomycin (100 μg/mL), penicillin (100 U/mL), 10% fetal calf serum (Sanko chemicals) in an incubator with 5% CO2 at 37° C. The transfection was carried out by adding pCI-neo hV2 expression vector, expression vector inserted with the sequence coding Gqs chimeric protein (pLEC-Gqs5, LiveWare, Molecular Devices) and Lipofectamine2000 (Invitrogen), all diluted with OPTI-MEM I Reduced Serum Medium I (Invitrogen), to the cell suspension which was prepared from the confluent cells suspended with EMEM as mentioned above without antibiotics at 1×10^6 cells/mL. After the transfection, the cells (HEK293 cells coexpressed human V2 receptor and Gqs chimeric protein) were incubated in an incubator with 5% CO2 for two days and were used as cells for confirming agonism of human V2 receptor, and used for assessment of the test compounds. The expression plasmid vector of human V2 receptor represented as pCI-neo/hV2 above was constructed by the method as described below.

The subject of data set [2] is anesthetized rats infused with hypotonic solution. In words: Antidiuretic effect on diuresis induced by hypotonic solution in anesthetized rats. Format: in vivo, rat. Particulars: 10 μg/kg intravenously; for Antidiuretic effect (decreasing rate of urine volume): anesthetized male SD rats, against pre value; for Duration tine: period until decreasing rate of urine volume restored to −20%. As for the experimental part: The Study of Antidiuretic Effect
The Confirmation Study of Antidiuretic Effect on the Diuretic Activity Induced by Loading Hypotonic Solution in the Anesthetized Rats Infused with Hypotonic Solution
It has been reported that plasma AVP level was decreased with intravenous infusion of hypotonic solution (J. Endocrinol., Vol. 141, pp. 59-67, 1994). The antidiuretic effect of the test compounds in the rats induced a diuretic condition was determined by the method as reported by Angchanpen et al (Br. J. Pharmacol., Vol. 93, pp. 151-155, 1988). The test compounds were dissolved in dimethylsulfoxide at 10 mM, and used in the study. Male SD rats (200-400 g weight) were anesthetized with 100 mg/kg of Inactin (SIGMA) intraperitonealy and each cannula was inserted into trachea, jugular vein, bladder and femoral vein, respectively. The hypotonic solution (0.3% NaCl, 0.83% glucose) was infused via femoral vein at 9 mL/hour. The urine volume obtained via cannula inserted into bladder was measured every 10 minutes. After steady-state of urine volume for three 10 minutes periods, test compounds prepared as mentioned above were administered intravenously at 10 μg/kg via cannula inserted into jugular vein. Dimethylsulfoxide/saline (0.3%) was used as a vehicle. The average of urine volume measured for three 10 minutes periods before the administration was defined as the pre value (0%). After the administration of the test compounds, the urine volume was measured every 10 minutes. The antidiuretic effect, namely the decrease of the urine volume, induced by administration of test compounds was calculated from the decreasing rate of urine volume (minus %) against the pre value. Because maximum decreasing rate of the urine volume after administration of vehicle was −20% in this study, the period that decreasing rate of urine volume restored to −20% after administration of the test compounds was considered as indication of duration time of the test compounds.

The target in data set [3] is T1, human V2 receptor. In words: Binding experiment for human V2 receptor ([3H]-AVP displacement, CHO cell membranes). Set-up: purchased Packard BioScience; host or cells: CHO cell membranes. Particulars: inhibition of [3H]-AVP binding, CHO cell membranes expressing human V2 receptor; Ki calculated from IC50 and Kd; read-out: Affinity to human V2 receptor Ki. As for the experimental part:
Binding Experiment for Human V2 Receptor
Test compounds were dissolved in dimethylsulfoxide at 10 mM. The affinities for human V2 receptor were determined by an inhibition against [^3H]-Arginie vasopressin (AVP) (Perkin elmer Japan) binding to the human V2 receptor using CHO cell membranes expressed human V2 receptor (Packard BioScience). Cell membranes suspension was prepared by suspending the cell membranes as mentioned above with Assay buffer (50 mM Tris-HCl, 10 mM MgCl2, 0.1% bovine serum albumin (BSA), pH7.4) at an adequate protein concentration. The test compound solutions were prepared by diluting the dimethylsulfoxide solution of the test compound as mentioned above with Assay buffer at final concentration of 10 nM, 100 nM, 1 μM and 10 μM (in this diluting procedure, concentration of dimethylsulfoxide was adjusted to be 0.5% at each concentration of the test compound). Cell membranes suspension (50 μL), 3 nM of [^3H]-AVP (50 μL), Assay buffer (50 μL) and the solution of the test compounds at each concentrations (50 μL) were added to MultiScreen 96-well plate (Millipore) and the mixture was incubated for an hour at 25° C. with shaking slightly. After filtration by aspiration, the plate was washed with ice-cold washing buffer (50 mM Tris-HCl, 10 mM MgCl2, pH 7.4) for three times. After dry the plate, Microscinti-20 (Packard) was added to each well and the plate was shaken slightly, and then radioactivities of each well were counted with a micro plate scintillation counter, TopCount (Packard). Non-specific binding of [^3H]-AVP for cell membranes was determined by adding 1 μM of cold AVP substituted for the test compounds. The concentration of the test compounds inhibiting the specific binding of [^3H]-AVP by 50% was considered as IC50 value.
The Calculation of Kd Value of [^3H]-AVP for the Cell Membranes Expressed Human V2 Receptor
The suspension of the cell membranes expressed human V2 receptor was prepared with diluting adequately with the Assay buffer as mentioned above. In consideration for the radioactivity of [^3H]-AVP, six different concentrations (final concentration; ranging from approximately 100 pM to 6000 pM) of [^3H]-AVP were prepared by serial dilution by from 2 to 3 fold with the Assay buffer. The cell membranes suspension (50 μL), each concentrations of [^3H]-AVP (50 μL), the Assay buffer (50 μL) and 1 μM of cold AVP or the Assay buffer (50 μL) were added to MultiScreen 96-well plate (Millipore) and the mixture was incubated for an hour at 25° C. with shaking slightly. The specific bindings (B value) of each concentrations of the [^3H]-AVP were determined by the method as mentioned above and free-bound contents (F value) at each concentrations of the [^3H]-AVP were determined. The Kd value was calculated by Scatchard analysis using the B value and the F value.

As for `C[C@@H]1CN(C(=O)c2ccc(-n3cccn3)cc2Cl)c2ccccc2CN1C(=O)NCC(N)=O` [Example 5-2], the Dead in the data set on Male SD rats is reported as 0/2. On human V2 receptor [1], the EC50 (as a rule, the concentration needed to bring the measured effect to its halfway point) worked out at 7.3 nM and the “I A (intrinsic activity)” value stood at 0.71. Also, in data set [2], the “Antidiuretic effect (decreasing rate of urine volume)” value was −83.9% and the Duration tine turned out to be 50 min. The Ki (as a rule, the equilibrium dissociation constant of an inhibitor or competing ligand from its target) on human V2 receptor [3] is 35.5 nM.
Turning to `C[C@@H]1CN(C(=O)c2ccc(-n3cccn3)cc2Cl)c2ccccc2CN1C(=O)NCC(=O)O` [Example 3-1, {[(R)-1-(2-Chloro-4-pyrazol-1-ylbenzoyl)-3-methyl-1,2,3,5-tetrahydrobenzo[e]-1,4-diazepin-4-carbonyl]amino}acetic acid], at human V2 receptor [1], the EC50 is 9.4 nM and the “I A (intrinsic activity)” value was 0.59. Also, in data set [2], the “Antidiuretic effect (decreasing rate of urine volume)” value is −88.7% and the Duration tine worked out at 60 min. The inhibition constant (Ki) at human V2 receptor [3] is 19.7 nM.
For `C[C@@H]1CN(C(=O)c2ccc(-n3cccn3)cc2Cl)c2ccccc2CN1C(=O)NCC(=O)N1CCCCC1` [Example 5-6], on human V2 receptor [1], the EC50 was determined as 17.3 nM and the “I A (intrinsic activity)” value is 0.92.
On to `C[C@@H]1CN(C(=O)c2ccc(-n3cccn3)cc2Cl)c2ccccc2CN1C(=O)NCC(=O)N(C)C` [Example 5-4], for which the Dead in the data set on Male SD rats is recorded as 0/2. Moreover, at human V2 receptor [1], the response was half-maximal at 27.6 nM (EC50) and the “I A (intrinsic activity)” value came out at 0.49. Also, in data set [2], the “Antidiuretic effect (decreasing rate of urine volume)” value is reported as −90.4% and the Duration tine is given as 80 min.
As for `C[C@@H]1CN(C(=O)c2ccc(OCCO)cc2Cl)c2ccccc2CN1C(=O)NCC(=O)O` [Example 3-6], at human V2 receptor [1], a half-maximal effect (EC50) was put at 15.4 nM and the “I A (intrinsic activity)” value amounted to 0.93.
With `C[C@@H]1CN(C(=O)c2ccc(-n3cccn3)cc2Cl)c2ccccc2CN1C(=O)NCCO` [Example 4, N-(2-Hydroxyethyl)-(R)-1-(2-chloro-4-pyrazol-1-ylbenzoyl)-3-methyl-1,2,3,5-tetrahydrobenzo[e]-1,4-diazepin-4-carboxamide], at human V2 receptor [1], the EC50 turned out to be 16 nM and the “I A (intrinsic activity)” value came out at 0.75. For the same compound, the Ki on human V2 receptor [3] is 61.9 nM.
Turning to `C[C@@H]1CN(C(=O)c2ccc(-n3cccn3)cc2Cl)c2ccc(F)cc2CN1C(=O)NCC(N)=O` [Example 5-19], on human V2 receptor [1], the EC50 was determined as 15.6 nM and the “I A (intrinsic activity)” value is on record as 0.57.
`CNC(=O)CNC(=O)N1Cc2ccccc2N(C(=O)c2ccc(-n3cccn3)cc2Cl)C[C@H]1C` [Example 5-3]: on human V2 receptor [1], the EC50 is 9.1 nM and the “I A (intrinsic activity)” value worked out at 0.48. In addition, the Ki on human V2 receptor [3] was 14 nM.
For the compound `C[C@@H]1CN(C(=O)c2ccc(-n3cccn3)cc2C(F)(F)F)c2ccccc2CN1C(=O)NCC(N)=O` [Example 5-11], on human V2 receptor [1], a half-maximal effect (EC50) was put at 8.6 nM and the “I A (intrinsic activity)” value was 0.75.
On the same counts, the results for `Cc1cc(-n2cccn2)ccc1C(=O)N1C[C@@H](C)N(C(=O)NCC(N)=O)Cc2ccccc21` [Example 5-12] are 6.5 nM and 0.79.
Turning to `C[C@@H]1CN(C(=O)c2ccc(N3CCCC3)cc2Cl)c2ccccc2CN1C(=O)NCC(N)=O` [Example 5-18], on human V2 receptor [1], the EC50 is 2.2 nM and the “I A (intrinsic activity)” value was determined as 0.89. Besides, the Ki at human V2 receptor [3] was 27.8 nM.
Consider `C[C@@H]1CN(C(=O)c2ccc(-n3cccn3)cc2F)c2ccccc2CN1C(=O)NCC(N)=O` [Example 5-15], for which, on human V2 receptor [1], the EC50 came to 9.1 nM and the “I A (intrinsic activity)” value worked out at 0.71.
Consider `C[C@@H]1CN(C(=O)c2ccc(-n3cccn3)cc2Cl)c2ccccc2CN1C(=O)NCC(=O)N1CCCC1` [Example 5-5], for which, in the data set on Male SD rats, the Dead is recorded as 0/2. At human V2 receptor [1], a half-maximal response (EC50) required 24.9 nM and the “I A (intrinsic activity)” value came out at 0.83. In data set [2], the “Antidiuretic effect (decreasing rate of urine volume)” value is reported as −89.4% and the Duration tine was found to be 90 min.
